Read-outs that look alike come from different tables or passages of the source.
Columns and labels:
Z-138 cell line = assay: Z-138 Proliferation Assay (Cell Titer Glo, 5 days); format: cell-based; conditions: Homo sapiens, 120 h, Z-138 cells, 5 days, read-out: Proliferation EC50
How it was run: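 Z-138 cells exposed 5 days at 37 °C, 5% CO2 to nine-point 3-fold dilutions (final top 20 μM, 0.2% DMSO), in triplicate. Viability read as ATP by CellTiter-Glo luminescence; IC50 from 4-parameter fit of normalized dose-response curves.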

[1] = test system: symmetric di-methyl arginine in Z-138 cells; assay: Z-138 Methylation Assay (In Cell Western for symmetric di-methyl arginine and DNA content); format: cell-based; conditions: Homo sapiens, read-out: ICW EC50
How it was run: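 Z-138 cells (50,000 cells/mL) treated with compound 96 h at 37 °C, then fixed and stained for symmetric di-methyl arginine (800 nm) with DRAQ5 DNA counterstain (700 nm) on Licor Odyssey.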

PRMT5/MEP50 = PRMT5/MEP50 (Homo sapiens (Human), UniProt O14744); assay: PRMT5 Biochemical Assay (PRMT5/MEP50 enzyme assay on peptide substrate, 3H-SAM Flashplate)
PRMT5/MEP50, sequence (O14744 other isoform, or with tags, fused parts or gaps): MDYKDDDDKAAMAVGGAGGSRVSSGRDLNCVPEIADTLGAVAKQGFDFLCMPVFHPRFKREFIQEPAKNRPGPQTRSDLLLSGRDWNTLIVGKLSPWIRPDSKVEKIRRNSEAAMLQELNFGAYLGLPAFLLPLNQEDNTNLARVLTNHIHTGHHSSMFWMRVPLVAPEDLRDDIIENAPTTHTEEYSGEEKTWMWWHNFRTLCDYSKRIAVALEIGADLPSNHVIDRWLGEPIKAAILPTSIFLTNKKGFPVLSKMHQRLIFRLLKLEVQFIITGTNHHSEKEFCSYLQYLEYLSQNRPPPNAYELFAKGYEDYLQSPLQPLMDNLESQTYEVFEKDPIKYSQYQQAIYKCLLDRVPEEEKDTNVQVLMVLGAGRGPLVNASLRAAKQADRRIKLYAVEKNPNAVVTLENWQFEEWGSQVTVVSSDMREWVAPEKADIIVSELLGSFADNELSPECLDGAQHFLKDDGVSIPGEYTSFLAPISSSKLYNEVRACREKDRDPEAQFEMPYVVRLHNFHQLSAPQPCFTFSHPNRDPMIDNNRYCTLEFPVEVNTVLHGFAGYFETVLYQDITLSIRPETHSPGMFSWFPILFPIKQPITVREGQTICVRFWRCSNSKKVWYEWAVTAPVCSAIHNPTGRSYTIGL
PRMT5/MEP50, sequence (Q9BQA1 other isoform, or with tags, fused parts or gaps partner): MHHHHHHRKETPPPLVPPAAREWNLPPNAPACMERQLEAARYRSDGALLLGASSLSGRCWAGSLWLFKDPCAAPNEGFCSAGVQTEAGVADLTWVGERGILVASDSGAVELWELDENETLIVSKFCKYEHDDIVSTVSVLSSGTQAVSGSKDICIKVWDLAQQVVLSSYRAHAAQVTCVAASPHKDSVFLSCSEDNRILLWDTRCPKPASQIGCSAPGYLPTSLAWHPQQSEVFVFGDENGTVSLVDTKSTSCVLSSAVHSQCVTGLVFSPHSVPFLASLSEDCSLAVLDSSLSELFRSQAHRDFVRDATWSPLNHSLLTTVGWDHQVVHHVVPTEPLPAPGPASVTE
Excerpt: S-adenosylmethionine (SAM), S-adenosylhomocysteine (SAH), bicine, KCl, Tween20, dimethylsulfoxide (DMSO), bovine skin gelatin (BSG), and Tris(2-carboxyethyl)phosphine hydrochloride solution (TCEP) were purchased from Sigma-Aldrich at the highest level of purity possible. ^3H-SAM was purchase from American Radiolabeled Chemicals with a specific activity of 80 Ci/mmol. 384-well streptavidin Flashplates were purchased from PerkinElmer.
Peptide representative of human histone H4 residues 1-15 was synthesized with a C-terminal linker-affinity tag motif and a C-terminal amide cap by 21st Century Biochemicals.
The amplified genes were sublconed into pENTR/D/TEV (Life Technologies) and subsequently transferred by Gateway™ attL×attR recombination to pDEST8 baculovirus expression vector (Life Technologies).
Protein over-expression was accomplished by infecting exponentially growing Spodoptera frugiperda (SF9) cell culture at 1.2×10^6 cell/ml with a 5000 fold dilution of BIIC stock. Infections were carried out at 27° C. for 72 hours, harvested by centrifugation, and stored at −80° C. for purification.
Flag-PRMT5/6His-MeP50 was eluted with 300 mM Imidazole in the same buffer.
General Procedure for PRMT5/MEP50 Enzyme Assays on Peptide Substrates.
The assays were all performed in a buffer consisting of 20 mM Bicine (pH=7.6), 1 mM TCEP, 0.005% BSG, and 0.002% Tween20, prepared on the day of use. […] DMSO (1 ul) was added to Columns 11, 12, 23, 24, rows A-H for the maximum signal control and 1 ul of SAH, a known product and inhibitor of PRMT5/MEP50, was added to columns 11, 12, 23, 24, rows I-P for the minimum signal control. A cocktail (40 ul) containing the PRMT5/MEP50 enzyme and the peptide was added by Multidrop Combi (Thermo-Fisher). The compounds were allowed to incubate with PRMT5/MEP50 for 30 min at 25 degrees Celsius, then a cocktail (10 ul) containing ^3H-SAM was added to initiate the reaction (final volume=51 ul). […] The assays were stopped by the addition of non-radioactive SAM (10 ul) to a final concentration of 600 uM, which dilutes the ^3H-SAM to a level where its incorporation into the peptide substrate is no longer detectable. 50 ul of the reaction in the 384-well polypropylene plate was then transferred to a 384-well Flashplate and the biotinylated peptides were allowed to bind to the streptavidin surface for at least 1 hour before being washed three times with 0.1% Tween20 in a Biotek ELx405 plate washer. The plates were then read in a PerkinElmer TopCount plate reader to measure the quantity of ^3H-labeled peptide bound to the Flashplate surface, measured as disintegrations per minute (dpm) or alternatively, referred to as counts per minute (cpm).
[formula] [formula] Where dpm=disintegrations per minute, cmpd=signal in assay well, and min and max are the respective minimum and maximum signal controls.
[formula] [formula] Where top and bottom are the normally allowed to float, but may be fixed at 100 or 0 respectively in a 3-parameter fit. The Hill Coefficient normally allowed to float but may also be fixed at 1 in a 3-parameter fit. Y is the % inhibition and X is the compound concentration.

Row | EC50 ([1]; In Cell Western methylation) | IC50 (PRMT5/MEP50; PRMT5 biochemical assay) | EC50 [1] | IC50 (PRMT5/MEP50) | SMILES | EC50 (Z-138 cell line; Cell Titer Glo) | EC50 (Z-138 cell line)
1 |  |  | 101 to 1000 nM | < 100 nM | CN(C)CCNc1cc(C(=O)NC[C@H](O)CN2CCc3ccccc3C2)ncn1 [Compound 353] |  | 10000 to 50000 nM
2 | < 100 nM | < 100 nM |  |  | CN(CCO)c1nc(NC2COC2)cc(C(=O)NC[C@H](O)CN2CCc3ccccc3C2)n1 [Compound 495] | 101 to 1000 nM | 
3 |  |  | < 100 nM | < 100 nM | CC(C)N(C)CCOc1ccc(C(=O)NC[C@H](O)CN2CCc3ccccc3C2)cc1 [Compound 389] |  | 1000 to 10000 nM
4 | 101 to 1000 nM | < 100 nM |  |  | CC(C)Oc1nc(NC2CNC2)cc(C(=O)NC[C@H](O)CN2CCc3ccccc3C2)n1 [Compound 467] | 101 to 1000 nM | 
5 | < 100 nM | < 100 nM |  |  | O=C(NC[C@H](O)CN1CCc2ccccc2C1)c1cnnc(NC2CCOC2)c1 (stereo partly drawn) [Compound 544] | 101 to 1000 nM | 
6 |  |  | < 100 nM | < 100 nM | O=C(NC[C@H](O)CN1CCc2ccccc2C1)c1ccc(OCCN2CCOCC2)cc1 [Compound 387] |  | 101 to 1000 nM
7 | < 100 nM | < 100 nM |  |  | COCCO[C@H]1C[C@@H](Nc2cc(C(=O)NC[C@H](O)CN3CCc4ccccc4C3)ncn2)C1 [Compound 560] | 101 to 1000 nM | 
8 |  |  | < 100 nM | < 100 nM | CNCCCOc1ccc(C(=O)NC[C@H](O)CN2CCc3ccccc3C2)cc1 [Compound 392] |  | 1000 to 10000 nM
9 |  |  | 101 to 1000 nM | < 100 nM | CN1CCC(Nc2cccc(C(=O)NCC(O)CN3CCc4ccccc4C3)c2)C1 (stereo not drawn) [Compound 120] |  | 1000 to 10000 nM
10 |  |  | 1000 to 10000 nM | 101 to 1000 nM | O=C(NCC(O)CN1CCc2ccccc2C1)c1cccc(C2CCCN2)c1 (stereo not drawn) [Compound 42, N-(3-(3,4-dihydroisoquinolin-2(1H)-yl)-2-hydroxypropyl)-3-(pyrrolidin-2-yl)benzamide] |  | > 20000 nM
11 |  |  | < 100 nM | < 100 nM | Cc1cnc(OC2CCOCC2)cc1C(=O)NC[C@H](O)CN1CCc2ccccc2C1 [Compound 309] |  | 1000 to 10000 nM
12 |  |  | 101 to 1000 nM | < 100 nM | CN(CCNCC(F)(F)F)c1cc(C(=O)NC[C@H](O)CN2CCc3ccccc3C2)ccn1 [Compound 359] |  | 1000 to 10000 nM
13 |  |  | 101 to 1000 nM | 101 to 1000 nM | O=C(NC[C@H](O)CN1CCc2ccccc2C1)c1cncc(NC2COC2)n1 [Compound 366] |  | > 20000 nM
14 |  |  | 101 to 1000 nM | < 100 nM | CN(C)[C@H]1C[C@@H](Nc2cc(C(=O)NC[C@H](O)CN3CCc4ccccc4C3)ncn2)C1 [Compound 377] |  | 1000 to 10000 nM
15 | < 100 nM | < 100 nM |  |  | CCCC(=O)N1CC(Nc2cc(C(=O)NC[C@H](O)CN3CCc4ccccc4C3)ncn2)C1 [Compound 415] | < 100 nM | 
16 | 101 to 1000 nM | < 100 nM |  |  | Cc1c(NC2COC2)ncnc1C(=O)NC[C@H](O)CN1CCc2ccccc2C1 [Compound 604] | 1000 to 10000 nM | 
17 |  |  | 101 to 1000 nM | 101 to 1000 nM | CN(C)C(=O)CNCCOc1cccc(C(=O)NCC(O)CN2CCc3ccccc3C2)c1 (stereo not drawn) [Compound 340] |  | > 20000 nM
18 | 101 to 1000 nM | < 100 nM |  |  | CN1CCC(Oc2cc(C(=O)NC[C@H](O)CN3CCc4ccccc4C3)cnn2)CC1 [Compound 620] | 10000 to 50000 nM | 
19 |  |  | < 100 nM | 101 to 1000 nM | NCCOc1ccc2cc(C(=O)NC[C@H](O)CN3CCc4ccccc4C3)ccc2c1 [Compound 360] |  | 1000 to 10000 nM
20 | < 100 nM | < 100 nM |  |  | COCCN(C)c1cc(NC2CCN(C(C)=O)CC2)cc(C(=O)NC[C@H](O)CN2CCc3ccccc3C2)n1 [Compound 672] | < 100 nM | 
21 |  |  | 101 to 1000 nM | < 100 nM | CN1CCC(Nc2cc(C(=O)NC[C@H](O)CN3CCc4ccccc4C3)ncn2)CC1 [Compound 206] |  | 1000 to 10000 nM
22 | 101 to 1000 nM | < 100 nM |  |  | CC(C)N1CC(Nc2cc(C(=O)NC[C@H](O)CN3CCc4ccccc4C3)ncn2)C1 [Compound 423] | 10000 to 50000 nM | 
23 |  |  | < 100 nM | < 100 nM | CCN(C)CCOc1ccc(C(=O)NC[C@H](O)CN2CCc3ccccc3C2)cc1 [Compound 385] |  | 1000 to 10000 nM
24 | < 100 nM | < 100 nM |  |  | COCCN1CCC(Nc2ccnc(C(=O)NC[C@H](O)CN3CCc4ccccc4C3)c2)CC1 [Compound 550] | 1000 to 10000 nM | 

The next lines start with the compound.

Row | SMILES | EC50 ([1]; In Cell Western methylation) | IC50 (PRMT5/MEP50; PRMT5 biochemical assay) | EC50 [1] | IC50 (PRMT5/MEP50) | EC50 (Z-138 cell line; Cell Titer Glo) | EC50 (Z-138 cell line)
25 | CC(=O)N1CC(Nc2cc(C(=O)NC[C@H](O)CN3CCc4ccc(C)cc4C3)ncn2)C1 [Compound 667] | < 100 nM | 101 to 1000 nM |  |  | 1000 to 10000 nM | 
26 | CSCCN1CCC(Nc2cc(C(=O)NC[C@H](O)CN3CCc4ccccc4C3)ncn2)CC1 [Compound 639] | < 100 nM | < 100 nM |  |  | 1000 to 10000 nM | 
27 | Cc1cccc2c1CN(C[C@@H](O)CNC(=O)c1cc(NC3COC3)ncn1)CC2 [Compound 673] | < 100 nM | < 100 nM |  |  | 1000 to 10000 nM | 
28 | O=C(NC[C@H](O)CN1CCc2ccccc2C1)c1cc(NC2COC2)nc(N2CCN(C(=O)C3CC3)CC2)n1 [Compound 498] | < 100 nM | < 100 nM |  |  | < 100 nM | 
29 | CC(=O)N1CC(Nc2cc(C(=O)NC[C@H](O)CN3CCc4ccccc4C3)nc(C(F)(F)F)n2)C1 [Compound 474] | < 100 nM | < 100 nM |  |  | 101 to 1000 nM | 
30 | CC(=O)N[C@H]1C[C@H](Nc2cc(C(=O)NC[C@H](O)CN3CCc4ccccc4C3)ncn2)C1 [Compound 440] | < 100 nM | < 100 nM |  |  | 101 to 1000 nM | 
31 | O=C(NC[C@H](O)CN1CCc2ccccc2C1)c1cnnc(OC2CCN(CC(F)(F)F)CC2)c1 [Compound 626] | 101 to 1000 nM | 101 to 1000 nM |  |  | 1000 to 10000 nM | 
32 | O=C(NC[C@H](O)CN1CCc2ccccc2C1)c1cc(NC2CCN(C(=O)C3CCC3)CC2)ccn1 [Compound 566] | < 100 nM | < 100 nM |  |  | < 100 nM | 
33 | CC(=O)N1CCC(Nc2cc(C(=O)NC[C@H](O)CN3CCc4c(C)cccc4C3)ncn2)CC1 [Compound 677] | < 100 nM | < 100 nM |  |  | 1000 to 10000 nM | 
34 | CC(C)C(=O)N1CCN(c2nc(NC3COC3)cc(C(=O)NC[C@H](O)CN3CCc4ccccc4C3)n2)CC1 [Compound 463] | < 100 nM | < 100 nM |  |  | < 100 nM | 
35 | O=C(NC[C@H](O)CN1CCc2ccccc2C1)c1cc(N[C@H]2C[C@H](C(=O)N3CCCCC3)C2)ncn1 [Compound 511] | < 100 nM | < 100 nM |  |  | < 100 nM | 
36 | CC(=O)[C@H]1CC[C@H](Nc2cc(C(=O)NC[C@H](O)CN3CCc4ccccc4C3)ncn2)CC1 [Compound 600] | < 100 nM | < 100 nM |  |  | 1000 to 10000 nM | 
37 | CCS(=O)(=O)CCNCC1CN2C=NC(C(=O)NC[C@H](O)CN3CCc4ccccc4C3)=CC2=N1 (stereo partly drawn) [Compound 617] | > 1000 nM | 101 to 1000 nM |  |  | > 5000 nM | 
38 | CN(C[C@H](O)CN1CCc2ccccc2C1)C(=O)c1cc(NC2COC2)ncn1 [Compound 364] |  |  | 101 to 1000 nM | 101 to 1000 nM |  | 1000 to 10000 nM
39 | CS(=O)(=O)N1CCN(c2nc(NC3COC3)cc(C(=O)NC[C@H](O)CN3CCc4ccccc4C3)n2)CC1 [Compound 499] | < 100 nM | < 100 nM |  |  | 101 to 1000 nM | 
40 | O=C(NC[C@H](O)CN1CCc2ccccc2C1)c1cc(NC2CN(C(=O)C3CCC3)C2)ccn1 [Compound 577] | < 100 nM | < 100 nM |  |  | < 100 nM | 
